We go through three compounds from patent US4990537A, “Anti influenza agent” (priority 1988, dated 1991).

In series [1] the test system is human influenza virus A/WSN. The series is described as follows: Inhibitory activities against plaque formation of human influenza virus (plaque assay in MDCK cells). Format: cell-based. The settings on record: for inhibitory activities against growth of human influenza virus compared with amantadine: in words, versus amantadine.
For series [2], the system named is human influenza virus (A/Fukuoka/80). As to the kind of experiment: animal or person. Format: in vivo, human influenza virus; embryonated chicken eggs. The settings on record: for IC50: unidentified influenza virus, 48 h, read-out: Concentration for 50% inhibition against proliferation of virus; for activities for inhibiting proliferation of human influenza virus compared with amantadine: in words, versus amantadine.

Series [3] has as its system MDCK cells (dog kidney cells). The settings on record: for Cytotoxicity (printed in the inhibition rate column): 100.0 μg/ml, plaque assay, three days; for range of safety compared with amantadine: in words, versus amantadine.
A further series is described as follows: in vitro. The settings on record: dog, mdck.
Setting [4] is: unidentified influenza virus, WSN, MDCK, 72 h, read-out: Inhibition rate (%) of plaque formation.

As for `NC12CC3CC(CC(C3)C1)C2` [Amantadine, amantadine, reference compound], the inhibition (in general, how much of the control response was suppressed) at 30 µg/mL in series [1] (setting [4]) amounted to 60.1%. Moreover, the IC50 in series [2] is over 100 µg/mL. Also, in series [3], the cytotoxicity entry is “cytotoxicity slightly but distinctly” and the “Cytotoxicity (printed in the inhibition rate column)” value is “Cytotoxicity”.

As to `CS(=O)(=O)O.CS(=O)(=O)O.N=C(N)Nc1ccc(C(=O)Oc2ccc3cc(C(=N)N)ccc3c2)cc1` [Compound A, 6-Amidino-2-naphthyl p-guanidinobenzoate dimethanesulfonate], in series [1], the “inhibitory activities against growth of human influenza virus compared with amantadine” value is on record as “even stronger inhibitory activities against growth of human influenza virus than amantadine”. Also, in series [1] (setting [4]), the inhibition at 1 µg/mL was 19.9%, the inhibition at 2.5 µg/mL was found to be 27.2%, the inhibition at 5 µg/mL was determined as 52.1% and the inhibition at 10 µg/mL worked out at 100%. For the same compound, in series [1] (setting [4]), the inhibition at 25 µg/mL turned out to be 100% and the inhibition at 50 µg/mL was determined as 100%. In series [2], the “activities for inhibiting proliferation of human influenza virus compared with amantadine” value was “stronger activities for inhibiting proliferation of human influenza virus” and the IC50 stood at 0.125 µg/mL. In series [3], the “Cytotoxicity (printed in the inhibition rate column)” value was “Cytotoxicity” and the “range of safety compared with amantadine” value is “wide range of safety as compared with amantadine”. The MNTC at 72 h in “in vitro” was at least 50 µg/mL.

For the compound `CN(C)C(=O)COC(=O)Cc1ccc(OC(=O)c2ccc(NC(=N)N)cc2)cc1.CS(=O)(=O)O` [Compound B, N,N-dimethylcarbamoylmethyl p-(p-guanidinobenzoyloxy)phenylacetate methanesulfonate], the “inhibitory activities against growth of human influenza virus compared with amantadine” value in series [1] was “even stronger inhibitory activities against growth of human influenza virus than amantadine”. Further, in series [1] (setting [4]), the inhibition at 10 µg/mL is 29.5%, the inhibition at 20 µg/mL is 51.5%, the inhibition at 40 µg/mL is 80.5% and the inhibition at 50 µg/mL came out at 88%. The inhibition at 100 µg/mL in series [1] (setting [4]) amounted to 100%. Also, in series [2], the “activities for inhibiting proliferation of human influenza virus compared with amantadine” value is recorded as “stronger activities for inhibiting proliferation of human influenza virus” and the IC50 worked out at 1.25 µg/mL. In series [3], the “range of safety compared with amantadine” value is reported as “wide range of safety as compared with amantadine”. Also, the MNTC at 72 h in the series “in vitro” was at least 1000 µg/mL.
